The values that follow come from article PMC7531004, “Discovery of gramicidin A analogues with altered activities by multidimensional screening of a one-bead-one-compound library” (Nature Communications, 2020).

Where a SMILES comes first, the peptide text is derived from it. [ ]: non-standard residue; d: D form. The star is where a group is joined. NHCH2CH2OH = OCCN*; For = O=C*

As a reminder, the viability is a read-out of living cells in per cent, often relative to untreated cells.

Series [1] in a line: H+/Na+ transport assay of bead-derived peptides (one-point).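 Further: relative to parent gramicidin A activity set to 1.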 In kind it is biochemical. Details: key: relative activity; mean of two control wells = 1.00. As to conditions: bead-derived peptide solution, EYPC/EYPG LUVs. Put shortly:
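One-point screen: peptide + pyranine-loaded LUVs, 30 min RT with vortexing, 96-well. Read-out is fluorescence intensity scaled as 100 × (Ix – I0)/(Imax – I0). Imax from Triton X-100, I0 from untreated vesicles, and the mean of the two control wells is set to 1.00.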

For series [2] the following is noted: cell viability/%. Put shortly:
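First, library peptide stocks are diluted 250-fold in RPMI1640 with 10% heat-inactivated FBS. Next, they are mixed with P388 cells to give 1 × 10^4 cells/mL and incubated 92 h at 37 °C, 5% CO2. Finally, viability (%) is scored by WST-1 absorbance at 415 nm.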

Series [3] relates to Streptococcus pyogenes SSI-9. Put plainly: Antibacterial activity assay of bead-derived peptides (three concentrations). Format: cell-based. Details: key: +++: inhibition by the 640-fold diluted peptide solution; ++: inhibition by the 160-fold diluted solution; +: inhibition by the 40-fold diluted solution; -: no inhibition. The following applies: S. pyogenes, bead-derived peptide solution, three concentrations. Put shortly: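 Bead-derived library peptide stocks in DMSO were tested undiluted and after 4- and 16-fold DMSO dilution against S. pyogenes SSI-9 (2 × 10^5 CFU/well) in cation-adjusted Mueller Hinton Broth with 5% laked horse blood. After 18 h at 37 °C, wells were scored for precipitation of grown cells.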

Take `CNC(=O)C[C@@H](NC(=O)[C@H](C)NC(=O)[C@@H](CC(C)C)NC(=O)[C@H](C)NC(=O)CNC(=O)[C@@H](NC=O)C(C)C)C(=O)N[C@H](C(=O)N[C@@H](C(=O)N[C@@H](Cc1c[nH]c2ccccc12)C(=O)N[C@H](CC(C)C)C(=O)N[C@@H](Cc1c[nH]c2ccccc12)C(=O)N[C@@H](C(=O)N[C@@H](Cc1c[nH]c2ccccc12)C(=O)N[C@@H](C(=O)N[C@@H](Cc1c[nH]c2ccccc12)C(=O)NCCO)C(C)C)C(C)C)C(C)C)C(C)C` [compound 11290] (For-VGA[dL]A[dD](NHMe)V[dV]W[dL]W[dV]W[dV]W-NHCH2CH2OH): the “H+/Na+ transport activity normalized against the value of 1 (1.00)” value (from here on “H+/Na+ transport activity normalized”) in series [1] is 1.47. This compound yielded a viability in series [2] of 87.6%. Also, the antibacterial activity result in series [3] was “-”.

In the case of `CC(C)C[C@@H](NC(=O)[C@H](C)NC(=O)CNC(=O)[C@@H](NC=O)C(C)C)C(=O)N[C@@H](C)C(=O)N[C@H](CC(C)C)C(=O)N[C@H](C(=O)N[C@@H](C(=O)N[C@@H](Cc1c[nH]c2ccccc12)C(=O)N[C@H](CC(C)C)C(=O)N[C@@H](Cc1c[nH]c2ccccc12)C(=O)N[C@@H](C(=O)N[C@@H](Cc1c[nH]c2ccccc12)C(=O)N[C@H](CC(C)C)C(=O)N[C@@H](Cc1c[nH]c2ccccc12)C(=O)NCCO)C(C)C)C(C)C)C(C)C` [compound 11305] (For-VGA[dL]A[dL]V[dV]W[dL]W[dV]W[dL]W-NHCH2CH2OH), in series [1], the “H+/Na+ transport activity normalized” value was 1.26. Also, in series [2], the viability was determined as 15.5%. Further, the antibacterial activity result in series [3] was “+”.

For the compound `CC(C)C[C@@H](NC(=O)[C@H](C)NC(=O)[C@H](NC(=O)[C@H](C)NC(=O)CNC(=O)[C@@H](NC=O)C(C)C)C(C)C)C(=O)N[C@H](C(=O)N[C@H](CC(C)C)C(=O)N[C@@H](Cc1c[nH]c2ccccc12)C(=O)N[C@@H](C(=O)N[C@@H](Cc1c[nH]c2ccccc12)C(=O)N[C@H](CC(C)C)C(=O)N[C@@H](Cc1c[nH]c2ccccc12)C(=O)N[C@H](CC(C)C)C(=O)N[C@@H](Cc1c[nH]c2ccccc12)C(=O)NCCO)[C@H](C)O)C(C)C` [compound 11400] (For-VGA[dV]A[dL]V[dL]W[dT]W[dL]W[dL]W-NHCH2CH2OH), the “H+/Na+ transport activity normalized” value in series [1] stood at 1.03. In series [2], the viability is 53%. The antibacterial activity result in series [3] is “+”.

As to `CNC(=O)C[C@@H](NC(=O)[C@@H](NC(=O)[C@H](NC(=O)[C@H](C)NC(=O)[C@H](NC(=O)[C@H](C)NC(=O)CNC(=O)[C@@H](NC=O)C(C)C)C(C)C)C(C)C)C(C)C)C(=O)N[C@@H](Cc1c[nH]c2ccccc12)C(=O)N[C@@H](C(=O)N[C@@H](Cc1c[nH]c2ccccc12)C(=O)N[C@@H](C(=O)N[C@@H](Cc1c[nH]c2ccccc12)C(=O)N[C@H](CC(C)C)C(=O)N[C@@H](Cc1c[nH]c2ccccc12)C(=O)NCCO)C(C)C)C(C)C` [compound 11413] (For-VGA[dV]A[dV]V[dD](NHMe)W[dV]W[dV]W[dL]W-NHCH2CH2OH), the “H+/Na+ transport activity normalized” value in series [1] is given as 1.21. Moreover, the viability in series [2] was found to be 45.4%. The antibacterial activity entry in series [3] is reported as “-”.

As for `CC(C)C[C@@H](NC(=O)[C@H](C)NC(=O)CNC(=O)[C@@H](NC=O)C(C)C)C(=O)N[C@@H](C)C(=O)N[C@@H](C(=O)N[C@H](C(=O)N[C@H](CC(C)C)C(=O)N[C@@H](Cc1c[nH]c2ccccc12)C(=O)N[C@@H](C(=O)N[C@@H](Cc1c[nH]c2ccccc12)C(=O)N[C@@H](C(=O)N[C@@H](Cc1c[nH]c2ccccc12)C(=O)N[C@@H](C(=O)N[C@@H](Cc1c[nH]c2ccccc12)C(=O)NCCO)[C@H](C)O)C(C)C)C(C)C)C(C)C)C(C)C` [compound 11625] (For-VGA[dL]A[dV]V[dL]W[dV]W[dV]W[dT]W-NHCH2CH2OH), in series [1], the “H+/Na+ transport activity normalized” value stood at 1.08. This compound showed a viability in series [2] of 100%. In addition, the antibacterial activity result in series [3] is “-”.

`CC(C)C[C@@H](NC(=O)[C@H](Cc1c[nH]c2ccccc12)NC(=O)[C@@H](CC(C)C)NC(=O)[C@H](Cc1c[nH]c2ccccc12)NC(=O)[C@H](NC(=O)[C@H](Cc1c[nH]c2ccccc12)NC(=O)[C@H](NC(=O)[C@@H](NC(=O)[C@H](NC(=O)[C@H](C)NC(=O)[C@H](NC(=O)[C@H](C)NC(=O)CNC(=O)[C@@H](NC=O)C(C)C)C(C)C)C(C)C)C(C)C)[C@H](C)O)[C@H](C)O)C(=O)N[C@@H](Cc1c[nH]c2ccccc12)C(=O)NCCO` [compound 12293] (For-VGA[dV]A[dV]V[dT]W[dT]W[dL]W[dL]W-NHCH2CH2OH): the “H+/Na+ transport activity normalized” value in series [1] is recorded as 1.00. Moreover, the viability in series [2] worked out at 100%. In series [3], the antibacterial activity result is given as “-”.

Consider `CC(C)C[C@@H](NC(=O)[C@H](Cc1c[nH]c2ccccc12)NC(=O)[C@H](NC(=O)[C@H](Cc1c[nH]c2ccccc12)NC(=O)[C@@H](CC(C)C)NC(=O)[C@H](Cc1c[nH]c2ccccc12)NC(=O)[C@@H](CC(C)C)NC(=O)[C@@H](NC(=O)[C@H](NC(=O)[C@H](C)NC(=O)[C@H](NC(=O)[C@H](C)NC(=O)CNC(=O)[C@@H](NC=O)C(C)C)C(C)C)C(C)C)C(C)C)C(C)C)C(=O)N[C@@H](Cc1c[nH]c2ccccc12)C(=O)NCCO` [compound 12432] (For-VGA[dV]A[dV]V[dL]W[dL]W[dV]W[dL]W-NHCH2CH2OH), for which, in series [1], the “H+/Na+ transport activity normalized” value was 1.01. Further, in series [2], the viability came to 6.4%. In addition, the antibacterial activity entry in series [3] was “-”.

Take `CC(C)C[C@@H](NC(=O)[C@H](Cc1c[nH]c2ccccc12)NC(=O)[C@H](NC(=O)[C@H](Cc1c[nH]c2ccccc12)NC(=O)[C@H](NC(=O)[C@@H](NC(=O)[C@H](NC(=O)[C@H](C)NC(=O)[C@H](NC(=O)[C@H](C)NC(=O)CNC(=O)[C@@H](NC=O)C(C)C)[C@H](C)O)C(C)C)C(C)C)C(C)C)[C@H](C)O)C(=O)N[C@@H](Cc1c[nH]c2ccccc12)C(=O)N[C@@H](C(=O)N[C@@H](Cc1c[nH]c2ccccc12)C(=O)NCCO)C(C)C` [compound 12629] (For-VGA[dT]A[dV]V[dV]W[dT]W[dL]W[dV]W-NHCH2CH2OH): the “H+/Na+ transport activity normalized” value in series [1] came out at 1.01. Further, the viability in series [2] amounted to 100%. The antibacterial activity entry in series [3] is on record as “-”.

Consider `CC(C)C[C@@H](NC(=O)[C@H](C)NC(=O)[C@H](NC(=O)[C@H](C)NC(=O)CNC(=O)[C@@H](NC=O)C(C)C)C(C)C)C(=O)N[C@H](C(=O)N[C@@H](C(=O)N[C@@H](Cc1c[nH]c2ccccc12)C(=O)N[C@@H](C(=O)N[C@@H](Cc1c[nH]c2ccccc12)C(=O)N[C@@H](C(=O)N[C@@H](Cc1c[nH]c2ccccc12)C(=O)N[C@H](CC(C)C)C(=O)N[C@@H](Cc1c[nH]c2ccccc12)C(=O)NCCO)C(C)C)[C@H](C)O)C(C)C)C(C)C` [compound 12865] (For-VGA[dV]A[dL]V[dV]W[dT]W[dV]W[dL]W-NHCH2CH2OH), for which, in series [1], the “H+/Na+ transport activity normalized” value was 1.10. The compound further had a viability in series [2] of 91.7%. Further, in series [3], the antibacterial activity entry is “-”.

In the case of `CNC(=O)C[C@@H](NC(=O)[C@H](C)NC(=O)[C@H](NC(=O)[C@H](C)NC(=O)CNC(=O)[C@@H](NC=O)C(C)C)C(C)C)C(=O)N[C@H](C(=O)N[C@@H](C(=O)N[C@@H](Cc1c[nH]c2ccccc12)C(=O)N[C@H](CC(C)C)C(=O)N[C@@H](Cc1c[nH]c2ccccc12)C(=O)N[C@@H](C(=O)N[C@@H](Cc1c[nH]c2ccccc12)C(=O)N[C@H](CC(C)C)C(=O)N[C@@H](Cc1c[nH]c2ccccc12)C(=O)NCCO)C(C)C)C(C)C)C(C)C` [compound 12938] (For-VGA[dV]A[dD](NHMe)V[dV]W[dL]W[dV]W[dL]W-NHCH2CH2OH), in series [1], the “H+/Na+ transport activity normalized” value is 1.07. For the same compound, the viability in series [2] stood at 100%. The antibacterial activity entry in series [3] is given as “-”.

Take `CC(C)C[C@@H](NC(=O)[C@H](C)NC(=O)CNC(=O)[C@@H](NC=O)C(C)C)C(=O)N[C@@H](C)C(=O)N[C@@H](C(=O)N[C@H](C(=O)N[C@@H](C(=O)N[C@@H](Cc1c[nH]c2ccccc12)C(=O)N[C@H](CC(C)C)C(=O)N[C@@H](Cc1c[nH]c2ccccc12)C(=O)N[C@H](CC(C)C)C(=O)N[C@@H](Cc1c[nH]c2ccccc12)C(=O)N[C@@H](C(=O)N[C@@H](Cc1c[nH]c2ccccc12)C(=O)NCCO)C(C)C)C(C)C)C(C)C)[C@H](C)O` [compound 13002] (For-VGA[dL]A[dT]V[dV]W[dL]W[dL]W[dV]W-NHCH2CH2OH): the “H+/Na+ transport activity normalized” value in series [1] came out at 1.33. This compound gave a viability in series [2] of 98.3%. For the same compound, the antibacterial activity entry in series [3] is recorded as “-”.

On to `CNC(=O)C[C@@H](NC(=O)[C@H](Cc1c[nH]c2ccccc12)NC(=O)[C@@H](CC(C)C)NC(=O)[C@H](Cc1c[nH]c2ccccc12)NC(=O)[C@H](NC(=O)[C@H](Cc1c[nH]c2ccccc12)NC(=O)[C@@H](CC(C)C)NC(=O)[C@@H](NC(=O)[C@@H](CC(C)C)NC(=O)[C@H](C)NC(=O)[C@@H](CC(C)C)NC(=O)[C@H](C)NC(=O)CNC(=O)[C@@H](NC=O)C(C)C)C(C)C)[C@H](C)O)C(=O)N[C@@H](Cc1c[nH]c2ccccc12)C(=O)NCCO` [compound 13033] (For-VGA[dL]A[dL]V[dL]W[dT]W[dL]W[dD](NHMe)W-NHCH2CH2OH), for which the “H+/Na+ transport activity normalized” value in series [1] was 1.01. In addition, in series [2], the viability was determined as 100%. Further, in series [3], the antibacterial activity entry was “-”.
